Test results from publication PMC8011931, “Identification, Structure–Activity Relationship, and Biological Characterization of 2,3,4,5-Tetrahydro-1H-pyrido[4,3-b]indoles as a Novel Class of CFTR Potentiators” (Journal of Medicinal Chemistry, 2020).

Target: F508del-CFTR (Homo sapiens, UniProt P13569, DEL508-508)
Assay: HS-YFP-based assay for CFTR activity on F508del-CFTR FRT cells rescued at 32 °C for 24 h
Assay type: cell-based
Design: expressed in transfected cells; key to Emax: fold increase in F508del-CFTR rescue relative to hit 3 (normalized)
Details: for EC50: F508del-CFTR FRT cells rescued at 32 °C for 24 h, plus forskolin; for EC50 / Emax (FRT F508del-CFTR): mean ± SD (n = 3–6), n.a.: not active (up to 20 μM); for Emax: supplementary csv, same data as Tables 1–3; for Emax (FRT F508del-CFTR): normalized for the activity of analogue 3
Description: The chemical library was screened in duplicate on a Fischer rat thyroid (FRT) cell line, stably coexpressing F508del-CFTR and the halide-sensitive yellow fluorescent protein, HS-YFP.[23],[34],[35] To overcome the F508del trafficking defect, cells were initially incubated for 24 h at 32 °C and then acutely treated (15–30 min) with a single compound (5 μM) in combination with forskolin (10 μM). After stimulation, the F508del-CFTR activity in the plasma membrane was calculated by measuring the rate of fluorescence quenching arising from iodide influx.[34] This activity was compared to that of wells containing forskolin alone (negative control) or forskolin plus VX-770 (1 μM, as a positive control) (Figure 2A). Analysis of screening performance with the Z′ method gave a score of 0.6, which can be considered optimal for this type of assay. The activity scores for each compound were then plotted as an ordered distribution (Figure 2B). All compounds whose average activity calculated from the two rounds of screening was greater than 185% with respect to the negative control (i.e., forskolin alone) were considered as primary hits.
The primary hits were confirmed by testing them at different concentrations, in order to extrapolate the dose–response relationship. First, we focused on the F508del mutant. The compounds were tested in the low micromolar range, in the presence of forskolin (10 μM), on F508del-CFTR FRT cells following rescue of the trafficking defect by low-temperature incubation, as done for the primary screening. The most interesting hits were subsequently tested for their ability to overcome the more severe gating defect of pure class III mutant using FRT cells stably expressing G551D-CFTR (Figure 3B).
The role of the heteroaryl group (A) acylating the position 2 of the tetrahydro-γ-carboline was initially explored by modifying the substituent on the pyrazolyl residue and replacing the pyrazole with other rings, while keeping the 8-methoxy carboline moiety unmodified. The activity of each compound is described in terms of normalized maximal efficacy (Emax), the maximum fold increase in the rescue of F508del-CFTR activity with respect to hit 3, and potency (EC50), the concentration producing half-maximal efficacy.
FRT cells stably expressing mutant F508del-CFTR or G551D-CFTR and the halide-sensitive yellow fluorescent protein (HS-YFP) YFP-H148Q/I152L and CFBE41o-cells stably expressing F508del-CFTR and HS-YFP were generated as previously described.[21],[57] FRT cells were cultured using the Coon’s modification of Ham’s F12 medium, while CFBE41o-cells were cultured in the modified Eagle’s medium. Media were supplemented with 10% fetal calf serum, 2 mM L-glutamine, 100 U/mL of penicillin, and […] of streptomycin. For functional assays of CFTR activity based on the HS-YFP assays, CFBE41o- or FRT cells were plated (50,000 cells/well) on clear-bottom 96-well black microplates (Corning Life Sciences, Acton, MA). The following day, cells were assayed. In the case of FRT cells expressing F508del-CFTR, plates were kept at 32 °C (or treated with correctors at 37 °C where indicated) for an additional 24 h to rescue the mutant trafficking defect, before assays.
Prior assay, cells were washed with phosphate-buffered saline (PBS) containing (in mM) 137 NaCl, 2.7 KCl, 8.1 Na2HPO4, 1.5 KH2PO4, 1 CaCl2, and 0.5 MgCl2. Cells were then incubated for 25 min with 60 μL of PBS plus forskolin (20 μM) and test compounds (at the desired concentration) to stimulate mutant CFTR. Cells were then transferred to microplate readers (FluoStar Optima; BMG Labtech, Offenburg, Germany) for CFTR activity determination. The plate readers were equipped with high-quality excitation (HQ500/20X: 500 ± 10 nm) and emission (HQ535/30M: 535 ± 15 nm) filters for YFP (Chroma Technology). […]

F508del-CFTR, sequence (P13569 with tags, fused parts or gaps DEL508-508): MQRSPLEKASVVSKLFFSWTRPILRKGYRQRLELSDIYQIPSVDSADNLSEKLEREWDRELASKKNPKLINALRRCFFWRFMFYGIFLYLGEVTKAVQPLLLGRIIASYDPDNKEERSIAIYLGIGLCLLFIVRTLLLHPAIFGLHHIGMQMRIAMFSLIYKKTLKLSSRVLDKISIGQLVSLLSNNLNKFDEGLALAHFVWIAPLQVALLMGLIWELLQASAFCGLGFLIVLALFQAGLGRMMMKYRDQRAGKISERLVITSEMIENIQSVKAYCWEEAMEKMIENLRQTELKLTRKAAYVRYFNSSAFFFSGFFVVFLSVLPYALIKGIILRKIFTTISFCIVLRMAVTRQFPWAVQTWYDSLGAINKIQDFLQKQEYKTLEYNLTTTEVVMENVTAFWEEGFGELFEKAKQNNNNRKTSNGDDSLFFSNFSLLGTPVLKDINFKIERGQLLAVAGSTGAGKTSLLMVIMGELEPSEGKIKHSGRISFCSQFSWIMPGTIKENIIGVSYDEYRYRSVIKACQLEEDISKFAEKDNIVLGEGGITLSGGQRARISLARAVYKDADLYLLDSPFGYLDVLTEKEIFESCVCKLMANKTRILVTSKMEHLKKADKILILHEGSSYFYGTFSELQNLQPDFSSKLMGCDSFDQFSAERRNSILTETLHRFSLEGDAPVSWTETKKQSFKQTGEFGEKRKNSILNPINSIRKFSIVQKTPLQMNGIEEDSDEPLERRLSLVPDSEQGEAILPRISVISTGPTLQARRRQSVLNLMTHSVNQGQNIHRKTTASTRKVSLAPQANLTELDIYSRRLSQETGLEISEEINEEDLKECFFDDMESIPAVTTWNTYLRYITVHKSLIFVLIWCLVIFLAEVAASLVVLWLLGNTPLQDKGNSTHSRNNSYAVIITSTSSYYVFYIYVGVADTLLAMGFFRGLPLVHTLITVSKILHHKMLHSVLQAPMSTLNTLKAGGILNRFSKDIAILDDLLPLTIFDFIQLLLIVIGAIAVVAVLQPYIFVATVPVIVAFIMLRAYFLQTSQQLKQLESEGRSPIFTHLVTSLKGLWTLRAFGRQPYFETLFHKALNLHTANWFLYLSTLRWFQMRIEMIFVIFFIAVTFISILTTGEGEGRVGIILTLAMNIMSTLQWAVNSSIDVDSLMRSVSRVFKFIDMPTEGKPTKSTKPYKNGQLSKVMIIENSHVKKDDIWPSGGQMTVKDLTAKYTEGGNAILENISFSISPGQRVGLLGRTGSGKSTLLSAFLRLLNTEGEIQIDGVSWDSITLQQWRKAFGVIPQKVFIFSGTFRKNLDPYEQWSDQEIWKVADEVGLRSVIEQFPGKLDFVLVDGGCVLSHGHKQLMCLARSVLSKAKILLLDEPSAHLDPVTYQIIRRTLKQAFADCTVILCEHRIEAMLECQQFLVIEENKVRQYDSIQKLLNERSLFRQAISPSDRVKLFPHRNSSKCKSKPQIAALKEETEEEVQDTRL

| SMILES | EC50 [µM] | Emax | activity on F508del-CFTR FRT cells (in words) | Emax (FRT F508del-CFTR) |
| --- | --- | --- | --- | --- |
| Cc1ccc(F)c2[nH]c3c(c12)C(C)N(C(=O)c1cc(C(F)(F)F)[nH]n1)CC3 (racemic) [Compound 32, (±)-(6-Fluoro-1,9-dimethyl-1,3,4,5-tetrahydro-2H-pyrido[4,3-b]indol-2-yl)-(5-(trifluoromethyl)-1H-pyrazol-3-yl)methanone] | 0.03 ± 0.02 | 1.0 ± 0.3 | – | – |
| Cc1ccc(F)c2[nH]c3c(c12)CN(C(=O)c1cc(C(F)(F)F)[nH]n1)C(C)C3 (racemic) [Compound 33, (±)-(6-Fluoro-3,9-dimethyl-1,3,4,5-tetrahydro-2H-pyrido[4,3-b]indol-2-yl)-(5-(trifluoromethyl)-1H-pyrazol-3-yl)methanone] | 0.022 ± 0.011 | 0.95 ± 0.27 | – | – |
| Cc1ccc(F)c2[nH]c3c(c12)C1CCC(C3)N1C(=O)c1cc(C(F)(F)F)[nH]n1 (racemic) [Compound 35, (±)-(4-Fluoro-1-methyl-5,6,7,8,9,10-hexahydro-7,10-epiminocyclohepta[b]indol-11-yl)-(5-(trifluoromethyl)-1H-pyrazol-3-yl)methanone] | 1.3 ± 0.3 | 0.82 ± 0.07 | – | – |
| Cc1ccc(F)c2[nH]c3c(c12)[C@H]1CC[C@@H](C3)N1C(=O)c1cc(C(F)(F)F)[nH]n1 (single isomer, unassigned) [Compound 36, (R)- or (S)-(4-Fluoro-1-methyl-5,6,7,8,9,10-hexahydro-7,10-epiminocyclohepta[b]indol-11-yl)(5-(trifluoromethyl)-1H-pyrazol-3-yl)methanone] | – | – | completely inactive | – |
| Cc1ccc(F)c2[nH]c3c(c12)C1CCC(C3)N1C(=O)c1cc(C(F)(F)F)[nH]n1 (single isomer, unassigned) [Compound 37, (S)- or (R)-(4-Fluoro-1-methyl-5,6,7,8,9,10-hexahydro-7,10-epiminocyclohepta[b]indol-11-yl)(5-(trifluoromethyl)-1H-pyrazol-3-yl)methanone] | 0.54 ± 0.04 | 0.95 ± 0.01 | retained some activity | – |
| Cc1ccc(F)c2[nH]c3c(c12)C(C)N(C(=O)c1cc(C(F)(F)F)[nH]n1)CC3 (single isomer, unassigned) [Compound 41, (R)- or (S)-(6-Fluoro-1,9-dimethyl-1,3,4,5-tetrahydro-2H-pyrido[4,3-b]indol-2-yl)-(5-(trifluoromethyl)-1H-pyrazol-3-yl)methanone] | 0.08 ± 0.02 | 1.0 ± 0.22 | – | – |
| Cc1ccc(F)c2[nH]c3c(c12)C(C)N(C(=O)c1cc(C(F)(F)F)[nH]n1)CC3 (single isomer, unassigned) [Compound 42, (S)- or (R)-(6-Fluoro-1,9-dimethyl-1,3,4,5-tetrahydro-2H-pyrido[4,3-b]indol-2-yl)-(5-(trifluoromethyl)-1H-pyrazol-3-yl)methanone] | 0.05 ± 0.01 | 0.9 ± 0.3 | – | – |
| O=C(c1cnn(-c2ccccc2)c1)N1CCc2[nH]c3ccccc3c2C1 [Compound 2, (1-Phenyl-1H-pyrazol-4-yl)-(1,3,4,5-tetrahydro-2H-pyrido[4,3-b]indol-2-yl)methanone] | 4.1 ± 1.3 | 0.79 ± 0.13 | – | – |
| COc1ccc2[nH]c3c(c2c1)CN(C(=O)c1cc[nH]n1)CC3 [Compound 4, (8-Methoxy-1,3,4,5-tetrahydropyrido[4,3-b]indol-2-yl)-(1H-pyrazol-3-yl)methanone] | 10.6 ± 1.3 | 0.17 ± 0.03 | – | 0.17 ± 0.03 |
| COc1ccc2[nH]c3c(c2c1)CN(C(=O)c1cc(C)[nH]n1)CC3 [Compound 5, (8-Methoxy-1,3,4,5-tetrahydro-2H-pyrido[4,3-b]indol-2-yl)-(5-methyl-1H-pyrazol-3-yl)methanone] | 60 ± 4 | 0.59 ± 0.11 | – | 0.59 ± 0.11 |
| COc1ccc2[nH]c3c(c2c1)CN(C(=O)c1cc(C(C)C)[nH]n1)CC3 [Compound 6, (8-Methoxy-1,3,4,5-tetrahydro-2H-pyrido-(5-isopropyl-1H-pyrazol-3-yl)-[4,3-b]indol-2-yl)methanone] | 5.7 ± 0.7 | 0.95 ± 0.08 | – | 0.95 ± 0.08 |
| COc1ccc2[nH]c3c(c2c1)CN(C(=O)c1cc(-c2ccccc2)[nH]n1)CC3 [Compound 7, (8-Methoxy-1,3,4,5-tetrahydro-2H-pyrido[4,3-b]indol-2-yl)-(5-phenyl-1H-pyrazol-3-yl)methanone] | 0.82 ± 0.17 | 0.84 ± 0.23 | – | 0.84 ± 0.23 |
| COc1ccc2[nH]c3c(c2c1)CN(C(=O)c1c[nH]c(C(F)(F)F)n1)CC3 [Compound 8, (8-Methoxy-1,3,4,5-tetrahydro-2H-pyrido[4,3-b]indol-2-yl)-(2-(trifluoromethyl)-1H-imidazol-4-yl)methanone] | 2.8 ± 0.8 | 0.59 ± 0.14 | – | – |
| COc1ccc2[nH]c3c(c2c1)CN(C(=O)c1ccc(Br)o1)CC3 [Compound 9, (8-Methoxy-1,3,4,5-tetrahydro-2H-pyrido[4,3-b]indol-2-yl)-(5-bromofuran-2-yl)methanone] | 3.7 ± 1.1 | 0.94 ± 0.11 | – | – |
| COc1ccc2[nH]c3c(c2c1)CN(C(=O)c1cc2ccc(N(C)C)cc2[nH]1)CC3 [Compound 10, (8-Methoxy-1,3,4,5-tetrahydro-2H-pyrido[4,3-b]indol-2-yl)-(6-(dimethylamino)-1H-indol-2-yl)methanone] | 0.15 ± 0.02 | 0.91 ± 0.12 | – | 0.91 ± 0.12 |
| COc1ccc2[nH]c3c(c2c1)CN(C(=O)c1cc(C(F)(F)F)n(C)n1)CC3 [Compound 11, (8-Methoxy-1,3,4,5-tetrahydro-2H-pyrido[4,3-b]indol-2-yl)-(1-methyl-5-(trifluoromethyl)-1H-pyrazol-3-yl)methanone] | 7.1 ± 1.6 | 1.20 ± 0.08 | – | 1.20 ± 0.08 |
| COc1ccc2c(c1)c1c(n2C)CCN(C(=O)c2cc(C(F)(F)F)[nH]n2)C1 [Compound 12, (8-Methoxy-5-methyl-1,3,4,5-tetrahydro-2H-pyrido[4,3-b]indol-2-yl)-(5-(trifluoromethyl)-1H-pyrazol-3-yl)methanone] | 2.1 ± 0.7 | 0.85 ± 0.06 | – | 0.85 ± 0.06 |
| O=C(c1cc(C(F)(F)F)[nH]n1)N1CCc2[nH]c3ccccc3c2C1 [Compound 13, (1,3,4,5-Tetrahydro-2H-pyrido[4,3-b]indol-2-yl)-(5-(trifluoromethyl)-1H-pyrazol-3-yl)methanone] | 0.23 ± 0.05 | 1.05 ± 0.17 | – | – |
| Cc1ccc2[nH]c3c(c2c1)CN(C(=O)c1cc(C(F)(F)F)[nH]n1)CC3 [Compound 14, (8-Methyl-1,3,4,5-tetrahydro-2H-pyrido[4,3-b]indol-2-yl)-(5-(trifluoromethyl)-1H-pyrazol-3-yl)methanone] | 0.27 ± 0.09 | 0.95 ± 0.11 | – | – |
| Cc1cccc2[nH]c3c(c12)CN(C(=O)c1cc(C(F)(F)F)[nH]n1)CC3 [Compound 15, (9-Methyl-1,3,4,5-tetrahydro-2H-pyrido[4,3-b]indol-2-yl)-(5-(trifluoromethyl)-1H-pyrazol-3-yl)methanone] | 0.48 ± 0.12 | 0.83 ± 0.09 | – | – |
| Cc1ccc2c3c([nH]c2c1)CCN(C(=O)c1cc(C(F)(F)F)[nH]n1)C3 [Compound 16, (7-Methyl-1,3,4,5-tetrahydro-2H-pyrido[4,3-b]indol-2-yl)-(5-(trifluoromethyl)-1H-pyrazol-3-yl)methanone] | 0.2 ± 0.06 | 0.22 ± 0.04 | – | – |
